Where two headings read alike, the source gives them in different places.

In experiment [1] the test system is lymphocytic leukemia P388. The experiment is described as follows: in vivo lymphocytic leukemia P388 test. Details: species or system mice. The conditions noted are these: Mus musculus, P388, ip, 720 h, two single doses four days apart, read-out: T/C × 100 (Percent); for response vs control in vivo at 6.25 mg/kg: P388, Dose 6.25 mg/kg intraperitoneally; for response vs control in vivo at 12.5 mg/kg: P388, Dose 12.5 mg/kg intraperitoneally; for response vs control in vivo at 3.12 mg/kg: P388, Dose 3.12 mg/kg intraperitoneally; for response vs control in vivo at 50 mg/kg: P388, Dose 50 mg/kg intraperitoneally; for response vs control in vivo at 25 mg/kg: P388, Dose 25 mg/kg intraperitoneally; for response vs control in vivo at 100 mg/kg: P388, Dose 100 mg/kg intraperitoneally; for response vs control in vivo at 1.56 mg/kg: P388, Dose 1.56 mg/kg intraperitoneally. The protocol:
The in vivo lymphocytic leukemia P388 test is carried out by the United States National Cancer Institute. The animals used are either male or female CD2F, mice. There are six to seven animals per test group. The tumor transplant is by intraperitoneal injection of dilute ascitic fluid containing cells of lymphocytic leukemia P388. The test compounds are administered intraperitoneally in two single doses with a four-day interval between doses at various dose levels following tumor inoculation. The animals are weighed and survivors are recorded on a regular basis for 30 days. A ratio of survival time for treated (T)/ control (C) animals is calculated. The criterion for efficacy is T/C x 100 > 125%. The positive control compound in this test is 1,4-dihydroxy-5,8-[bis[[2-[(2-hydroxyethyl)amino]-ethyl]amino]-9,10-anthracene- dione given at dosages ranging from 12.0 to 0.075 mg/kg. See Cancer Chemotherapy Reports, Part 3, 3, 1 (1972) for a comprehensive discussion of the protocol.

The subject of the next experiment is Streptococcus faecalis. The experiment is described as follows: agar plate paper-disc inhibition zone screening. It is filed as cell-based. The conditions noted are these: Enterococcus faecalis, read-out: Inhibition Zone Diameter mm (Dose mg/ml) S. Faecalis. The method, then:
(§1) The bacterial and yeast isolates are maintained in agar slants or in liquid media, hereby designated as inoculum media. The cultures are transferred at regular intervals in such media. (See Table for the corresponding inoculum media of each culture.) The organisms are generally transferred on to agar slants or liquid inoculum media and incubated overnight (18-20 hours): 37°C for the bacterial isolates and 28°C for the fungal cultures.
(§2) The microbial cells from the overnight agar slants are then scraped off and suspended in saline solution (0.85% NaCI). The microbial concentrations are adjusted to a light transmittancy of 20-35%, Junior Coleman Spectrophotometer (555 M). For the organisms that are maintained in liquid media, an aliquot of the culture suspension is simply diluted with saline to 20-35% light transmittancy.
(§3) The above microbial suspension serve as inocula for the assay plates. Thus, 0.16-10 ml (see Table for exact amount) are used to inoculate 100 ml of the molten-agar assay medium.
(§4) Stainless steel frames, 12.3 x 25.3 cm (ID) and glass plates, 15.3 x 31.7 cm are used to make the test trays. The frames are attached to the plates with tape at each end and the inner edges sealed with 2% agar. Twenty five ml of inoculated assay medium is spread evenly on each tray and allowed to solidify. The trays are covered, inverted, and refrigerated until used.
(§5) The compounds or samples to be tested are dissolved in suitable solvents, e.g., alcohols, dimethylsulfoxide, or N,N-dimethylformamide. The samples are generally dissolved so that the final concentration of the solvent is <10%.^* The compounds are tested at different concentrations: 3,000; 1,000; 500; 100; and 10 mcg/ml. Paper discs (12.7 mm diameter) are placed on the agar trays with forceps, then 0.08 ml of the dissolved compound is pipetted onto each disc using a 0.2 ml pipette.
(§6) The disked agar trays are incubated overnight (18-20 hours) at 37°C for the bacterial cultures and 28°C for the yeasts. The Penicillium avellaneium tray is incubated for at least […] since it is a slower- growing organism.
(§7) Active compounds show a zone of inhibition around the disc. The diameter of the zone is measured in mm. The zone diameter of active compounds ranges from a minimum of 13.5 mm to as high as 60 mm. The size of the zone diameter generally reflects the activity of the compound: the larger the zone the greater the activity.

For another experiment, the system named is Bacillus subtilis. The experiment in a line: agar plate paper-disc inhibition zone screening. It is filed as cell-based. The conditions noted are these: read-out: Inhibition Zone Diameter mm (Dose mg/ml) B. Subtilis. The method, then: as §1, §2, §3, §4, §5, §6, §7
Another experiment concerns Penicillium avellaneum. The experiment is described as follows: agar plate paper-disc inhibition zone screening. It is filed as cell-based. Conditions: Hamigera avellanea, read-out: Inhibition Zone Diameter mm (Dose mg/ml) P. Avellaneum. The protocol: The Penicillium avellaneum is grown for six days, at 28°C, on an agar medium. This is to allow sporulation of the culture. The organism is then harvested by scraping off the cells from the agar surface (mycelia and spores) and suspending them in saline solution containing 0.05% Tween 80.
The suspension is adjusted to a light transmittancy of 20%. One ml of this suspension is used to inoculate 100 ml of the molten-agar assay medium.
as §4, §5, §6, §7

Take `CSCCn1nc2c3c(c(NCCNCCO)ccc31)C(=O)c1c(O)ccc(O)c1-2` [Example 48]: in experiment [1], the response vs control in vivo at 6.25 mg/kg was 140% and the response vs control in vivo at 12.5 mg/kg was 132%.

In the case of `CN(C)CCNCCn1nc2c3c(c(NCCNCCO)ccc31)C(=O)c1c(O)ccc(O)c1-2` [Example 50, 2-[2-[[2-(Dimethylamino)ethyl]amino]ethyl]-5-[[2-[(2-hydroxyethyl)amino]ethyl]amino]-7,10-dihydroxyanthra[1,9-cd]pyrazol-6(2H)-one], in experiment [1], the response vs control in vivo at 3.12 mg/kg is 207%, the response vs control in vivo at 6.25 mg/kg was found to be 188% and the response vs control in vivo at 50 mg/kg worked out at 226%.

Turning to `CN(CCO)CCn1nc2c3c(c(NCCNCCO)ccc31)C(=O)c1c(O)ccc(O)c1-2` [Example 51, 7,10-Dihydroxy-5-[[2-[(2-hydroxyethyl)amino]ethyl]amino]-2-[2-[(2-hydroxyethyl)-methylamino]ethyl]anthra[1,9-cd]pyrazol-6(2H)-one], in experiment [1], the response vs control in vivo at 3.12 mg/kg amounted to 184%, the response vs control in vivo at 6.25 mg/kg turned out to be 182% and the response vs control in vivo at 12.5 mg/kg was 203%.

For `O=C1c2c(O)ccc(O)c2-c2nn(CCCNCCO)c3ccc(NCCNCCO)c1c23` [Example 52, 7,10-Dihydroxy-5-[[2-[(2-hydroxyethyl)amino]ethyl]amino]-2-[3-((2-hydroxyethyi)amino]propyl]anthra[1,9-cd]pyrazol-6(2H)-one], in experiment [1], the response vs control in vivo at 12.5 mg/kg came to 157%, the response vs control in vivo at 25 mg/kg was found to be 183% and the response vs control in vivo at 100 mg/kg turned out to be 259%.

Take `NCCCNc1ccc2c3c(nn2CCCNCCO)-c2c(O)ccc(O)c2C(=O)c13` [Example 53]: the response vs control in vivo at 50 mg/kg in experiment [1] worked out at 160%.

Regarding `NCCNCCNc1ccc2c3c(nn2CCNCCO)-c2c(O)ccc(O)c2C(=O)c13` [Example 66, 5-[[2-[(2-Aminoethyl)amino]ethyl]amino]-7,10-dihydroxy-2-[2-[(2-hydroxyethyl)amino]ethyl]anthra[1,9-cd]pyrazol-6(2H)-one], in experiment [1], the response vs control in vivo at 12.5 mg/kg was determined as 233% and the response vs control in vivo at 25 mg/kg is 221%.

In the case of `O=C1c2c(O)ccc(O)c2-c2nn(CCNCCO)c3ccc(NCCN(CCO)CCO)c1c23` [Example 67, 5-[[2-[Bis(2-hydroxyethyl)amino]ethyl]amino]-7,10-dihydroxy-2-[2-[(2-hydroxyethyl)-amino]ethyl]anthra(1,9-cd]pyrazol-6(2H)-one], in experiment [1], the response vs control in vivo at 12.5 mg/kg was 158% and the response vs control in vivo at 25 mg/kg worked out at 187%.

For the molecule `O=C1c2c(O)ccc(O)c2-c2nn(CCNCCO)c3ccc(NCCCN(CCO)CCO)c1c23` [Example 68], in experiment [1], the response vs control in vivo at 25 mg/kg amounted to 163%, the response vs control in vivo at 50 mg/kg was determined as 167% and the response vs control in vivo at 100 mg/kg amounted to 192%.

With `NCCCNCCCCNCCCNc1ccc2c3c(nn2CCNCCO)-c2c(O)ccc(O)c2C(=O)c13` [Example 69, 5-[(3-[[4-[(3-Aminopropyl)amino]butyl]amino]propyl]amino]-7,10-dihydroxy-2-[2-[(2-hydroxyethyl)-amino]ethyl]anthra(1,9-cd]pyrazol-6(2H)-one], the response vs control in vivo at 6.25 mg/kg in experiment [1] is 127%.

As for `CNCCNc1ccc2c3c(nn2CCNCCO)-c2c(O)ccc(O)c2C(=O)c13` [Example 70, 7,10-Dihydroxy-2-[2-[(2-hydraxyethyl)amino]ethyl]-5-[[2-(methylamino)ethyl]amino]anthra[1,9-cd]pyrazol-6(2H)-one], in experiment [1], the response vs control in vivo at 6.25 mg/kg came out at 277% and the response vs control in vivo at 12.5 mg/kg was 277%.

For the molecule `NCCn1nc2c3c(c(NCCCNCCO)ccc31)C(=O)c1c(O)ccc(O)c1-2` [Example 75, 2-(2-Aminoethyl)-5-[[3-[(2-hydroxyethyl)amino]propyl]amino]-7,10-dihydroxyanthra[1,9-cd]pyrazol-6(2H)-one], the zone of inhibition at 3000 µg/mL with Streptococcus faecalis (Dose 3.0 mg/ml) stood at 0 mm. In addition, the zone of inhibition at 500 µg/mL with Bacillus subtilis (Dose 0.5 mg/ml) was 14 mm. The zone of inhibition at 3000 µg/mL in the experiment on Penicillium avellaneum (Dose 3.0 mg/ml) came out at 0 mm. In experiment [1], the response vs control in vivo at 1.56 mg/kg came to 181%, the response vs control in vivo at 3.12 mg/kg stood at 177% and the response vs control in vivo at 6.25 mg/kg worked out at 184%.

For `O=C1c2c(O)ccc(O)c2-c2nn(CC(O)CO)c3ccc(NCCNCCO)c1c23` (stereo not drawn) [Example 78, 2-(2,3-Dihydroxypropyl)-7,10-dihydroxy-5-[[2-[(2-hydroxyethyl)amino]ethyl]amino]anthra[1,9-cd]pyrazol-6(2H)-one], in experiment [1], the response vs control in vivo at 25 mg/kg is 184%, the response vs control in vivo at 50 mg/kg amounted to 177% and the response vs control in vivo at 100 mg/kg worked out at 208%. Besides, in experiment [1] (P388, Dose 200 mg/kg intraperitoneally), the response vs control in vivo at 200 mg/kg came out at 218%.

As to `O=C1c2c(O)cccc2-c2nn(CCNCCO)c3ccc(NCCNCCO)c1c23` [Example 83], the zone of inhibition at 3000 µg/mL in the experiment on Streptococcus faecalis was found to be 0 mm; in the experiment with Bacillus subtilis it was 14 mm; with Penicillium avellaneum, 0 mm.

As to `CNCCNc1ccc2c3c(nn2CCNCCO)-c2cccc(O)c2C(=O)c13` [Example 84, 7-Hydroxy-2-[2-[(2-hydroxyethyl)amino]ethyl]-5-[[2-(methylamino)ethyl]amino]anthra[1,9-cd]pyrazol-6(2H)-one], the zone of inhibition at 3000 µg/mL in the experiment on Streptococcus faecalis (Dose 3.0 mg/ml) turned out to be 14 mm; with Bacillus subtilis (Dose 3.0 mg/ml), 15 mm; in the experiment on Penicillium avellaneum (Dose 3.0 mg/ml), 0 mm.

On to `O=C1c2c(O)cc(O)c(O)c2-c2nn(CCNCCO)c3ccc(NCCNCCO)c1c23` [Example 86, 7,9,10-Trihydroxy-2-[2-[(2-hydroxyethyl)amino]ethyl]-5-[[2-[(2-hydroxyethyl)amino]lethyl]amino]-anthra[1,9-cd]pyrazol-6(2H)-one], for which, in experiment [1], the response vs control in vivo at 1.56 mg/kg worked out at 155% and the response vs control in vivo at 3.12 mg/kg turned out to be 165%.

For `O=C1c2c(O)c(O)cc(O)c2-c2nn(CCNCCO)c3ccc(NCCNCCO)c1c23` [Example 87, 7,8,10-Trihydroxy-2-[2-[(2-hydroxyethyl)amino]ethyl]-5-[[2-[(2-hydroxyethyl)amino]ethyl]amino]-anthra[1,9-cd]pyrazol-6(2H)-one], in experiment [1], the response vs control in vivo at 12.5 mg/kg was 257% and the response vs control in vivo at 25 mg/kg is 265%.

Take `CN(C)CCNCCNc1ccc2c3c(nn2CCCN)-c2c(O)ccc(O)c2C(=O)c13` [Example 91]: the results for the zone of inhibition at 3000 µg/mL in the experiment on Streptococcus faecalis (Dose 3.0 mg/ml), with Bacillus subtilis (Dose 3.0 mg/ml) and with Penicillium avellaneum (Dose 3.0 mg/ml) were 0 mm, 15 mm and 0 mm, respectively.
